Like-named read-outs stand apart in the source and are kept apart here.
Legend:
[1] = system: Influenza H5 N1/Duck/MN/1525/81
[2] = Pharmacokinetic simulations using CELADEN castanospermine parameters; set-up: species or system human; details: linear extrapolation
Experimental: It is known that a steady state minimum castanospermine concentration of 400 nanograms/ml is associated with a 50 mg/kg BID dose in mice and that the antiviral effect of celgosivir in vivo seems to be correlated with the minimum steady state concentration of castanospermine. […] International Publication No. WO 2014/143907 discloses pharmacokinetic parameters for castanospermine for the CELADEN study. […] Extrapolating linearly, therefore, the minimum protective dose (achieving 400 nanograms/ml steady state minimum) is approximately 40 mg every 6h, 75 mg every 8 h and 225 mg every 12 h. Further, WO 2014/143907 discloses that the CELADEN study regimen produce a steady state maximum castanospermine concentration of 5100 nanograms/ml. […] The FDA has published generic scaling factors to adjust mg/kg dosing in animals to mg/kg dosing in humans. Generically for mice, that scaling factor is 12. Therefore, 50 mg/kg BID is equivalent to a dose of 4.2 mg/kg BID in humans, which for a 60 kg human is equivalent to 250 mg. The same dose administered three or four times daily is equivalent to 167 mg and 125 mg and 2.8 and 2.1 mg/kg respectively. In a 60 kg human, the maximum single dose is 6.7 mg/kg, and the maximum daily dose is 10 mg/kg.

[3] = system: MucilAir™-Pool human airway epithelium; assay: Cilia beating frequency (CBF) on MucilAir-Pool, Phase 1; type: cell-based; details: Day 3, room temperature
Experimental: Effect on cilia included cilia motion: Cilia Beating Frequency (CBF).
(§1) Repeated basolateral exposure once a day of test compounds on MucilAir™-Pool. Transepithelial electrical resistance (TEER) was assessed each day. LDH release indicating cytotoxicity, was measured at Day 2 and 3 (24 hours accumulation). Cilia beating frequency (CBF) was measured once, at the end of the experiment, at Day 3. (FIG. 7)
(§2) Number of concentrations: 3 doses • Celgosivir=100, 30 and […] on basolateral side in 0.2% DMSO and 2% fetal bovine serum
Cilia beating frequency was monitored using a MAKO G030B camera connected to a ZEISS Primovert microscope with a 5× objective.
CBF measurement is based on the capture of 256 frames at high frequency rate (125 frames per second) at room temperature via the specific package of software. The frequency is expressed as Hertz and was calculated using an Epithelix software.

Human rhinovirus 14/1059 = assay: CPE inhibition assay (visual and neutral red); details: for EC50 (cell spans EC50, CC50, SI): MA-104 or MDCK, Visual or Neutral Red, concentration range 0.3-300; for EC50: Rhinovirus B
SARS-CoV-2 [4] = assay: SARS-CoV-2 apical replication in MucilAir-Pool (genome copies ORF1b-nsp14, Taqman RT-PCR); type: cell-based
[5] = cited from earlier work
SARS-CoV-2 [6] = assay: SARS-CoV-2 apical infectious titre in MucilAir-Pool (TCID50); details: for reduction of SARS-CoV-2 titre at apical side: 48 hours
[7] = system: Influenza B/Florida/4/2006; assay: CPE inhibition assay (visual and neutral red); details: for EC50: Influenza B virus; for EC50 (cell spans EC50, CC50, SI): MA-104 or MDCK, Visual or Neutral Red, concentration range 0.3-300
[8] = system: MucilAir™-Pool human airway epithelium; assay: Lactate dehydrogenase (LDH) cytotoxicity assay on MucilAir-Pool, Phase 1; type: cell-based
Experimental: (§3) The testing strategies includes basolateral exposure of test compounds on MucilAir™-Pool.
(§4) Global markers of Toxicity included (1) Tissue integrity monitoring: Trans-epithelial electrical resistance (TEER) measurement and (2) Cytotoxicity: Lactate dehydrogenase (LDH) assay.
as §1, with “7) […]” for “7)”
Lactate dehydrogenase is a stable cytoplasmic enzyme that is rapidly released into the culture medium upon rupture of the plasma membrane. 100 μL basolateral medium collected at each time-point was incubated with the reaction mixture of the Cytotoxicity Detection Kit^PLUS, following manufacturer's instructions (Sigma, Roche, 11644793001). The amount of the released LDH was then quantified by measuring the absorbance of each sample at 490 nm with a microplate reader. To determine the percentage of cytotoxicity, the following equation was used (A=absorbance values): Cytotoxicity (%)=(A (exp value)−A (low control)/A (high control)−A (low control))*100
The high control value was obtained by 10% Triton X-100 treatment 24 hours prior to the assay. Triton X-100 causes a massive LDH release and corresponds to 100% cytotoxicity.

[9] = system: Influenza B/Brisbane/60/2008; assay: CPE inhibition assay (visual and neutral red); details: for EC50: Influenza B virus; for EC50 (cell spans EC50, CC50, SI): MA-104 or MDCK, Visual or Neutral Red, concentration range 0.3-300
endogenous esterases = details: Kang (1996) Glycobiology; cited from earlier work
[10] = system: Parainfluenza virus 3/14702; assay: CPE inhibition assay (visual and neutral red); details: for EC50 (cell spans EC50, CC50, SI): MA-104 or MDCK, Visual or Neutral Red, concentration range 0.3-300
[11] = system: MucilAir™-Pool human airway epithelium; assay: Tissue integrity (TEER) of uninfected MucilAir-Pool, Phase 1; type: cell-based; details: all three tested concentrations, up to three days; threshold 100 Ω·cm^2
Experimental: as §3, §4, §1, §2
TEER is a dynamic parameter that reflects the state of epithelia and is typically between 200 to 600 Ω·cm^2. An increase of the TEER value reflects a blockage of the ion channel activities. A notable decrease of the TEER values (but >100 Ω·cm^2) could be observed in certain cases, reflecting an activation of the ion channels. Disruption of cellular junction or holes in the epithelia result in TEER values below 100 Ω·cm^2. […]
After addition of 200 μl of 0.9% saline solution to the apical compartment of MucilAir™ cultures, resistance was measured with an EVOMX volt-ohm-meter (World Precision Instruments UK, Stevenage) for each condition. […]

[12] = system: Influenza A H1N1/California/07/2009; assay: CPE inhibition assay (visual and neutral red); details: for EC50: Influenza A virus, H1N1; for EC50 (cell spans EC50, CC50, SI): MA-104 or MDCK, Visual or Neutral Red, concentration range 0.3-300
[13] = system: Influenza H5 N1/Duck/MN/1525/81; assay: organism not typed
[14] = over the tolerated dose range; cited from earlier work
[15] = system: MucilAir™-Pool human airway epithelium infected with SARS-CoV-2; assay: Tissue integrity (TEER) upon SARS-CoV-2 infection in MucilAir-Pool, Phase 2; type: cell-based
[16] = mice; 50 mg/kg BID dose; cited from earlier work

## CCCC(=O)O[C@H]1CN2CC[C@H](O)[C@@H]2[C@@H](O)[C@@H]1O [Celgosivir, 6-O-butanoyl castanospermine]
[1]
  EC50 (cell spans EC50, CC50, SI): Not active
[2]; every 6h
  minimum protective dose (achieving 400 nanograms/ml steady state minimum): approximately 40 mg
[2]; every 8 h
  minimum protective dose (achieving 400 nanograms/ml steady state minimum): ~75 mg
[2]; every 12 h
  minimum protective dose (achieving 400 nanograms/ml steady state minimum): ~225 mg
[3]
  cilia motion (cilia beating frequency): did not modify significantly
Human rhinovirus 14/1059
  EC50 (cell spans EC50, CC50, SI): Not active
  EC50: > 300 µM
SARS-CoV-2 [4]; 30 mM (so in the source), 48 hours
  reduction of viruses (genome copies): 1.2 log10
SARS-CoV-2 [4]; 30 mM (so in the source), later time point (72 hours)
  reduction of viruses (genome copies): 0.9 log10
SARS-CoV-2 [4]; 100 mM (so in the source), 48 hours
  reduction of viruses (genome copies): 1.4 log10
SARS-CoV-2 [4]; 100 mM (so in the source), later time point (72 hours)
  reduction of viruses (genome copies): 1 log10
SARS-CoV-2 [4]; 3 doses, basolateral once a day for 3 days
  inhibition of SARS-CoV-2 replication, dose relation: dose dependent inhibition
SARS-CoV-2 [4]; 3 microM
  SARS-CoV-2 replication: diminished extent
SARS-CoV-2 [4]; 30 and 100 microM
  SARS-CoV-2 replication: decreased
[5]; CELADEN study dose
  adverse event profile: higher incidence of GI effects, but not increased severity
[5]; human, in theory
  maximum daily dose as a total dose: 600 mg
  maximum dose as a single dose: 400 mg
SARS-CoV-2 [6]; 30 mM (so in the source)
  reduction of SARS-CoV-2 titre at apical side: 1 log10
SARS-CoV-2 [6]; 100 mM (so in the source)
  reduction of SARS-CoV-2 titre at apical side: 1.9 log10
SARS-CoV-2 [6]; 3 microM
  yield of viral progeny: diminished extent
SARS-CoV-2 [6]; 30 and 100 microM
  yield of viral progeny: decreased
SARS-CoV-2 [6]; 72 hours, concentration not given
  reducing effect on SARS-CoV-2 titre: 1.1 log
[7]
  EC50: > 300 µM
  EC50 (cell spans EC50, CC50, SI): Not active
[8]; Day 2 and 3, threshold limit 5% cytotoxicity
  cytotoxicity (LDH release): No cytotoxicity
[8]; concentrations at or below 100 microM
  evidence of cytotoxicity (TEER, cytotoxicity and CBF values versus controls): did not exhibit evidence of cytoxicity
[9]
  EC50: > 300 µM
  EC50 (cell spans EC50, CC50, SI): Not active
Endogenous esterases
  conversion to castanospermine: rapidly converted by endogenous esterases to castanospermine
  crossing of cell membranes: readily crosses cell membranes
[10]
  EC50: > 300 µM
  EC50 (cell spans EC50, CC50, SI): Not active
[11]
  Epithelial barrier function (TEER): > 100 Ω·cm^2
[12]
  EC50: > 300 µM
  EC50 (cell spans EC50, CC50, SI): Not active
[13]
  EC50: > 300 µM
[14]
  pharmacokinetics versus dose: linear with dose
[15]; 3 microM
  effect against virus-induced cytopathology: diminished extent
[15]; 30 and 100 μM, 48 and 72 hours post-inoculation
  SARS-CoV-2 induced decrease of TEER: prevented
[15]; 30 and 100 microM
  effect against virus-induced cytopathology: protective effective

## NC(=O)c1ncn([C@@H]2O[C@H](CO)[C@@H](O)[C@H]2O)n1 [Ribavirin, reference compound]
Human rhinovirus 14/1059
  EC50: < 10 µM
[7]
  EC50: < 10 µM
[9]
  EC50: < 10 µM
[10]
  EC50: < 10 µM
[12]
  EC50: < 10 µM
[13]
  EC50: < 10 µM

## O[C@H]1[C@H](O)[C@@H](O)CN2CC[C@H](O)[C@H]12 [castanospermine, (1S,6S,7R,8aR)-Tetrahydroxyoctahydroindolizine]
[1]; MA-104 or MDCK, Visual or Neutral Red, concentration range 0.3-300
  EC50 (cell spans EC50, CC50, SI): Not active
Human rhinovirus 14/1059
  EC50 (cell spans EC50, CC50, SI): Not active
  EC50: > 300 µM
[5]; CELADEN study regimen
  steady state maximum castanospermine concentration: 5100 nanograms/ml
[7]
  EC50: > 300 µM
  EC50 (cell spans EC50, CC50, SI): Not active
[9]
  EC50: > 300 µM
  EC50 (cell spans EC50, CC50, SI): Not active
[10]
  EC50: > 300 µM
  EC50 (cell spans EC50, CC50, SI): Not active
[16]
  steady state minimum castanospermine concentration: 400 nanograms/ml
[12]
  EC50: > 300 µM
  EC50 (cell spans EC50, CC50, SI): Not active
[13]
  EC50: > 300 µM

## Triton X-100 [reference compound]
[8]; 10% Triton X-100 solution, apical, 24 h, high control
  induced toxicity (LDH release): 100%
